Here are results for 5 compounds from patent EP1951748B1, “HEPATITIS C VIRUS VARIANTS” (Vertex Pharmaceuticals, Inc., priority 2005, dated 2007).

Several values for one entry are separate records, joined by “and”; a condition that tells them apart may be missing. Equal values may be shown once.

The test system of test [1] is HCV replicon cells containing R155K. The format is cell-based. The following applies: for Replicon Assay (resistance of viral variant): R155K, value (spread in brackets). The text has this:
(§1) The stable wild-type (mADE) and variant HCV sub-genomic replicon cell lines were generated using the T7 RNA runoff transcripts from the corresponding high efficiency Con1 replicon plasmids.
(§2) The stable wild-type and variant HCV sub-genomic replicon cell lines were generated using the T7 RNA runoff transcripts from the corresponding high efficiency Con1 replicon plasmids.
Background: In antiviral work, replicon cells carry a viral genome segment that copies itself.

Test [2] concerns HCV replicon cells containing R155M. Format: cell-based. To be noted: for Replicon Assay (resistance of viral variant): R155M, value (spread in brackets).
Excerpt: as §1, §2

In test [3] the test system is HCV replicon cells containing R155T. Format: cell-based. To be noted: for Replicon Assay (resistance of viral variant): R155T, value (spread in brackets).
Excerpt: as §1, §2

The test system of test [4] is HCV replicon cells containing R155I. The format is cell-based. To be noted: value (spread in brackets), 2880 min.
Test [5] relates to HCV replicon cells containing R155G. Format: cell-based. The following applies: value (spread in brackets), 2880 min.
Test [6] relates to HCV NS3 protease T54A. Format: biochemical.
The subject of test [7] is HCV NS3 protease A156S. The format is biochemical.
The subject of test [8] is HCV NS3 protease A156T. Format: biochemical.
The subject of test [9] is HCV NS3 protease A156I.
Test [10] concerns Con1-based HCV replicon cells with a different set of adaptive mutations (24-2). The following applies: determined previously in 24-2 replicon cells (refs 25,41); read-out: 48-h IC50; cited from earlier work.
The subject of test [11] is genotype 1 HCV. The experiment in a line: Phase 1b clinical trial (Study VX04-950-101), plasma HCV RNA. The following applies: for Δ in VL (Log change in HCV RNA from nadir to Day 14 (end of dosing)): 14 days, one value per subject.
Setting [12] is: Hepatitis C virus, 48 h, read-out: Replicon IC50.

What is called IC50 is the concentration needed to halve the response being measured.

Take `COc1ccc2c(O[C@@H]3C[C@H]4C(=O)N[C@]5(C(=O)O)C[C@H]5/C=C\CCCCC[C@H](NC(=O)OC5CCCC5)C(=O)N4C3)cc(-c3csc(NC(C)C)n3)nc2c1` [BILN 2061]: the “Replicon Assay (resistance of viral variant)” value (from here on “Replicon Assay”) was 355 (213) in [1] (2880 min); 42.2(2.1) in test [2] (2880 min); 645 (173) in test [3] (2880 min); 36.5 (9.5) in [4]; 821 (208) in [5]. In addition, the half-inhibitory concentration (IC50) was found to be 0.01 µM in [6] (T54A) and 0.0074 µM in [7] (A156S). Moreover, the Fold change is listed as 2.3 in test [6] (enzyme IC50 of T54A compared to the genotype 1a HCV-H reference strain, 15 min); 1.6 in [7] (enzyme IC50 of A156S compared to the genotype 1a HCV-H reference strain, 15 min); >183 in test [8] (enzyme IC50 of A156T compared to the genotype 1a HCV-H reference strain, 15 min).

Consider `CC(C)(C)OC(=O)N[C@H]1CCCCC/C=C\[C@@H]2C[C@@]2(C(=O)NS(=O)(=O)C2CC2)NC(=O)[C@@H]2C[C@@H](OC(=O)N3Cc4cccc(F)c4C3)CN2C1=O` [ITMN-191], for which the “Replicon Assay” value in [1] (2880 min) is listed as 62.8; in [3] (2880 min) it was 9.2; in [4] it was 1.3(0.2); in test [5] it was 18.7(3.0).

As to `NC(=O)c1ncn([C@@H]2O[C@H](CO)[C@@H](O)[C@H]2O)n1` [Ribavirin, 1-beta-D-ribofuranosyl-1H-- 1,2,4-triazole-3-carboxamide], the IC50 in test [1] (setting [12]) was 37 ± 17 µM; in test [2] (setting [12]), 39 ± 5 µM; in test [3] (setting [12]) it was 32 ± 18 µM. Also, the Fold change in [1] (replicon IC50 of R155K divided by that of the wild-type HCV replicon, 2880 min) worked out at 0.6 ± 0.3; in [2] (replicon IC50 of R155M divided by that of the wild-type HCV replicon, 2880 min), 0.7 ± 0.1; in [3] (replicon IC50 of R155T divided by that of the wild-type HCV replicon, 2880 min), 0.6 ± 0.3.

Take `CC(C)(C)NC(=O)N[C@H](C(=O)N1C[C@H]2[C@@H]([C@H]1C(=O)NC(CC1CCC1)C(=O)C(N)=O)C2(C)C)C(C)(C)C` (stereo partly drawn) [SCH 503034]: the “Replicon Assay” value in [1] (2880 min) was 6.2(4.9); in [2] (2880 min), 2.5(0.3); in test [3] (2880 min), 10.2(2.4); in test [4] it was 6.6(2.1); in [5], 2.8(0.6).

`CCC[C@H](NC(=O)[C@@H]1[C@H]2CCC[C@H]2CN1C(=O)[C@@H](NC(=O)[C@@H](NC(=O)c1cnccn1)C1CCCCC1)C(C)(C)C)C(=O)C(=O)NC1CC1` [VX-950]: the IC50 is 21.5 µM and 15 µM in test [8] (A156T, one row per patient-specific genetic background); > 50 µM in test [9]; 0.354 µM in test [10]. The “HCV RNA levels at Day 14” value in test [11] (7 patients with continued response, down to undetectable (<10 IU/mL)) is given as ≤ 64 IU/mL. The “drop in HCV RNA (initial response)” value in test [11] (13 patients who later rebounded during dosing) is “greater than 2 log10”. Moreover, the “Δ in VL (Log change in HCV RNA from nadir to Day 14 (end of dosing))” value in [11] (dose 450 (mg q8h)) was 1.82 and 0.65 and 0.41 and 1.84 and 1.06; in [11] (dose 750 (mg q8h)), 0.73 and 0.22; in test [11] (dose 1250 (mg q12h)), 3.20 and 1.16 and 1.93 and 0.05 and 0.33 and 0.62 and 0.26.
